The values that follow are results of earlier work, collected in patent publication US20240285563A1, “USE OF (S)-3-AMINO-4-(DIFLUOROMETHYLENYL) CYCLOPENT-1-ENE-1-CARBOXYLIC ACID IN THE TREATMENT OF RHEUMATOID ARTHRITIS” (Ovid Therapeutics Inc., priority 2023, published 2024).

Data set [1] has as its system aspartate aminotransferase (Asp-AT).
The test system of data set [2] is alanine aminotransferase (Ala-AT).
A further data set deals with T1, OAT (Homo sapiens, UniProt P04181).
T1 sequence (P04181 36-439 limits assumed): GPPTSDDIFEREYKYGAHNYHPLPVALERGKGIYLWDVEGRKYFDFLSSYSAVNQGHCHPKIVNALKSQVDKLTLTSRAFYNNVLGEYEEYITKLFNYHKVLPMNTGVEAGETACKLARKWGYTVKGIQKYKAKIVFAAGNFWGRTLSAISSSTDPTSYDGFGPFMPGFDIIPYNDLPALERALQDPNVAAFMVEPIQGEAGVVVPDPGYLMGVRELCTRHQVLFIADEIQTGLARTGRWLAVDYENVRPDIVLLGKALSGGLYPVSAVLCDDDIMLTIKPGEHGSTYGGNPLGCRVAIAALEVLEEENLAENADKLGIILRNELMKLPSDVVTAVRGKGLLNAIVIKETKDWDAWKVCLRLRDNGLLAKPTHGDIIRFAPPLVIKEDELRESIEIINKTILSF

The structures appear in SMILES notation.

As to `N[C@H]1C[C@@H](C(=O)O)CC1=C(F)F` [CPP-115, (1S,3S)-3-amino+difluoromethylenyl-1-cyclopentanoic acid, reference compound], the “inactivation or inhibition of off-target enzyme” value in data set [1] and in data set [2] was “not to inactivate or inhibit” throughout. In addition, the inhibition constant Ki on OAT was 116 µM.

`N[C@H]1C=C(C(=O)O)CC1=C(F)F` [OV329, (S)-3-amino-4-(difluoromethylenyl)cyclopent-1-ene-1-carboxylic acid]: the half-inhibitory concentration (IC50) in data set [1] (very weak reversible inhibitor) and in data set [2] (very weak reversible inhibitor) was over 4000 µM each time. In addition, the inhibition constant (Ki) on OAT was 3.3 µM. For the same compound, the “times more efficient an inactivator of OAT than CPP-115” value at OAT (ratio of kinact/KI versus CPP-115) is given as 9.0 times.
